CL renal data for 74 molecules are collected here from ChEMBL document CHEMBL1151930, “Physicochemical determinants of human renal clearance” (J Med Chem, 2009).

A short description of the series: clinical. The following applies: human, in vivo.
As for `NC(N)=Nc1nc(CSCCC(N)=NS(N)(=O)=O)cs1` [FAMOTIDINE], the CL renal was 4.42 mL/min/kg.
Molecule `C[C@@H](CN1CC(=O)NC(=O)C1)N1CC(=O)NC(=O)C1` [DEXRAZOXANE] yielded a CL renal of 1.4 mL/min/kg.
Then `Nc1ncnc2c1ncn2CCOCP(=O)(O)O` [ADEFOVIR], with 3.33 mL/min/kg; and `CC(C)(C)NCC(O)COc1ccc(NC(=O)NC2CCCCC2)cc1` (centres undefined) [TALINOLOL], with 2.6 mL/min/kg; and `CC1(C)S[C@@H]2[C@H](NC(=O)[C@H](N)c3ccccc3)C(=O)N2[C@H]1C(=O)O` [AMPICILLIN], with 1.2 mL/min/kg.
In the case of `CCN(CC)CCNC(=O)c1ccc(NS(C)(=O)=O)cc1` [SEMATILIDE] it was 3.5 mL/min/kg.
In the case of `CCOC(=O)c1ncn2c1CN(C)C(=O)c1cc(F)ccc1-2` [FLUMAZENIL] it was 0.03 mL/min/kg; in that of `O=P1(NCCCl)OCCCN1CCCl` (centres undefined) [IFOSFAMIDE], 0.58 mL/min/kg; in that of `CC[C@]1(O)C[C@@H]2CN(CCc3c([nH]c4ccccc34)[C@@](C(=O)OC)(c3cc4c(cc3OC)N(C)[C@H]3[C@@](O)(C(=O)OC)[C@H](OC(C)=O)[C@]5(CC)C=CCN6CC[C@]43[C@@H]65)C2)C1` [VINBLASTINE], 2.64 mL/min/kg.
`COc1ccc2cc1Oc1cc3c(cc1OC)CC[N+](C)(C)[C@H]3Cc1ccc(cc1)Oc1c(OC)c(OC)cc3c1[C@@H](C2)[N+](C)(C)CC3.[I-].[I-]` [METOCURINE IODIDE]: the CL renal amounted to 0.52 mL/min/kg.
Then `CNS(=O)(=O)Cc1ccc2[nH]cc(CCN(C)C)c2c1`, with 3.7 mL/min/kg; and `Cc1onc(-c2c(F)cccc2Cl)c1C(=O)N[C@@H]1C(=O)N2[C@@H]1SC(C)(C)[C@@H]2C(=O)O` [FLOXACILLIN], with 1.56 mL/min/kg.
In the case of `CC1(C)S[C@@H]2[C@H](NC(=O)C(c3ccccc3)S(=O)(=O)O)C(=O)N2[C@H]1C(=O)O` (some centres undefined) [SULBENICILLIN] it was 1.3 mL/min/kg.
In the case of `C[C@]12C=CC(=O)C=C1CC[C@@H]1[C@@H]2[C@@H](O)C[C@@]2(C)[C@H]1CC[C@]2(O)C(=O)CO` [PREDNISOLONE] it was 0.6 mL/min/kg; in that of `CC1(C)S[C@@H]2[C@H](NC(=O)COc3ccccc3)C(=O)N2[C@H]1C(=O)O` [PENICILLIN V], 1.74 mL/min/kg; in that of `O=C(O)CCCc1ccc(N(CCCl)CCCl)cc1` [CHLORAMBUCIL], 0.03 mL/min/kg.
For `CC(=O)Nc1c(I)c(C(=O)O)c(I)c(N(C)C(C)=O)c1I` [METRIZOIC ACID], the CL renal is 2.53 mL/min/kg.
Then `CC1CCCC(C)N1CCCC(O)(c1ccccc1)c1ccccn1` (centres undefined) [PIRMENOL], with 0.72 mL/min/kg; and `C[C@H]1COc2c(N3CCN(C)CC3)c(F)cc3c(=O)c(C(=O)O)cn1c23.C[C@H]1COc2c(N3CCN(C)CC3)c(F)cc3c(=O)c(C(=O)O)cn1c23.O` [LEVOFLOXACIN], with 1.41 mL/min/kg; and `CN(C)CCC=C1c2ccccc2CCc2ccccc21` [AMITRIPTYLINE], with 0.12 mL/min/kg.
On to `CCOc1ccccc1OCCN[C@H](C)Cc1ccc(OC)c(S(N)(=O)=O)c1` [TAMSULOSIN], for which the CL renal was 0.08 mL/min/kg.
`CC1(C)S[C@@H]2[C@H](NC(=O)Cc3ccccc3)C(=O)N2[C@H]1C(=O)O` [PENICILLIN G] had a CL renal of 5 mL/min/kg.
Then `C[C@@H]1C[C@H]2[C@@H]3CCC4=CC(=O)C=C[C@]4(C)[C@@]3(F)[C@@H](O)C[C@]2(C)[C@@]1(O)C(=O)CO` [DEXAMETHASONE], with 0.09 mL/min/kg; and `CN1C(=O)NC(=O)C(C)(C2=CCCCC2)C1=O` (centres undefined) [HEXOBARBITAL], with 0.02 mL/min/kg; and `CN(C)C(=N)N=C(N)N` [METFORMIN], with 7.4 mL/min/kg.
Then `CCCCc1nc(Cl)c(CO)n1Cc1ccc(-c2ccccc2-c2nn[nH]n2)cc1` [LOSARTAN], with 0.9 mL/min/kg.
In the case of `Cc1ccccc1N1C(=O)c2cc(S(N)(=O)=O)c(Cl)cc2NC1C` (centres undefined) [METOLAZONE] it was 1.12 mL/min/kg; in that of `S=P(N1CC1)(N1CC1)N1CC1` [THIOTEPA], 0.03 mL/min/kg.
Take `Cc1onc(-c2ccccc2)c1C(=O)N[C@@H]1C(=O)N2[C@@H]1SC(C)(C)[C@@H]2C(=O)O` [OXACILLIN]: the CL renal was 2.6 mL/min/kg.
In the case of `Nc1cc(-c2ccncc2)c[nH]c1=O` [INAMRINONE] it was 3.1 mL/min/kg.
Then `Nc1nc2c(ncn2CCC(CO)CO)c(=O)[nH]1` [PENCICLOVIR], with 6.7 mL/min/kg; and `CN(C)CCCN1c2ccccc2CCc2cc(O)ccc21` [2-HYDROXYIMIPRAMINE], with 0.3 mL/min/kg.
Then `CN(Cc1cnc2nc(N)nc(N)c2n1)c1ccc(C(=O)N[C@@H](CCC(=O)O)C(=O)O)cc1` [METHOTREXATE], with 1.7 mL/min/kg; and `CC(=O)NC[C@H]1CN(c2ccc(N3CCOCC3)c(F)c2)C(=O)O1` [LINEZOLID], with 0.6 mL/min/kg; and `CCC(C)(C)NCC(O)COc1ccccc1C(=O)CCc1ccccc1` (centres undefined) [DIPRAFENONE], with 0.04 mL/min/kg.
The molecule `c1ccc(C2(N3CCCCC3)CCCCC2)cc1` [PHENCYCLIDINE] yielded a CL renal of 0.82 mL/min/kg.
`CC(C)(O/N=C(\C(=O)N[C@@H]1C(=O)N2C(C(=O)[O-])=C(C[n+]3ccccc3)CS[C@H]12)c1csc(N)n1)C(=O)O` [CEFTAZIDIME] displayed a CL renal of 2.13 mL/min/kg.
Then `CO/N=C(\C(=O)N[C@@H]1C(=O)N2C(C(=O)O)=C(C)CS[C@H]12)c1csc(N)n1`, with 1.5 mL/min/kg; and `C[C@@H](O)[C@H]1C(=O)N2C(C(=O)O)=C(S[C@H]3C[C@@H](C(=O)N4CC[C@H](NC(=O)CNC(=N)N)C4)N(C)C3)[C@H](C)[C@H]12` [TOMOPENEM], with 1.14 mL/min/kg; and `C[C@H]1O[C@@H](O[C@H]2[C@@H](O)C[C@H](O[C@H]3[C@@H](O)C[C@H](O[C@H]4CC[C@@]5(C)[C@H](CC[C@@H]6[C@@H]5C[C@@H](O)[C@]5(C)[C@@H](C7=CC(=O)OC7)CC[C@]65O)C4)O[C@@H]3C)O[C@@H]2C)C[C@H](O)[C@@H]1O` [DIGOXIN], with 1.7 mL/min/kg.
Then `O=C(c1ccc(F)cc1)C1CCN(CCn2c(=O)[nH]c3ccccc3c2=O)CC1` [KETANSERIN], with 0.05 mL/min/kg.
Then `CC(=O)Oc1ccccc1C(=O)O` [ASPIRIN], with 0.24 mL/min/kg.
Regarding `CCCN(CCC)S(=O)(=O)c1ccc(C(=O)O)cc1` [PROBENECID], the CL renal stood at 0.03 mL/min/kg.
In the case of `Oc1ccc2c(c1)[C@@]13CCCC[C@@]1(O)[C@@H](C2)N(CC1CCC1)CC3` [BUTORPHANOL], the CL renal worked out at 2.05 mL/min/kg.
On to `O.O=P(O)(O)C(O)(Cn1ccnc1)P(=O)(O)O` [ZOLEDRONIC ACID], for which the CL renal was determined as 0.79 mL/min/kg.
`O=C1CN=C(c2ccccc2)c2cc([N+](=O)[O-])ccc2N1` [NITRAZEPAM] returned a CL renal of 0.01 mL/min/kg.
Then `CN1Cc2c(N)cccc2C(c2ccccc2)C1` (centres undefined) [NOMIFENSINE], with 12.5 mL/min/kg; and `Nc1nc(N)c2nc(-c3ccccc3)c(N)nc2n1`, with 2.77 mL/min/kg; and `O=C(O)[C@H]1/C(=C/CO)O[C@@H]2CC(=O)N21` [CLAVULANIC ACID], with 1.33 mL/min/kg.
Molecule `OCCN1CCN(CCCN2c3ccccc3Sc3ccc(Cl)cc32)CC1` [PERPHENAZINE] displayed a CL renal of 5 mL/min/kg.
Then `COCCc1ccc(OCC(O)CNC(C)C)cc1` (centres undefined) [METOPROLOL], with 0.65 mL/min/kg.
`N[C@@H]1CN(c2c(F)cc3c(=O)c(C(=O)O)cn([C@@H]4C[C@@H]4F)c3c2Cl)CC12CC2` [SITAFLOXACIN ANHYDROUS] displayed a CL renal of 2.8 mL/min/kg.
In the case of `COc1ccc2c3c1O[C@H]1C[C@@H](O)C=C[C@@]31CCN(C)C2` [GALANTAMINE] it was 1.57 mL/min/kg; in that of `N[C@@H](Cc1ccc(O)c(O)c1)C(=O)O` [LEVODOPA], 0.23 mL/min/kg.
Then `CCc1nn(CCCN2CCN(c3cccc(Cl)c3)CC2)c(=O)n1CCOc1ccccc1` [NEFAZODONE], with 0.38 mL/min/kg; and `CO[C@@]1(NC(=O)C(C(=O)O)c2ccc(O)cc2)C(=O)N2C(C(=O)O)=C(CSc3nnnn3C)CO[C@@H]21` (some centres undefined) [MOXALACTAM], with 0.63 mL/min/kg.
Then `CC1(C)S[C@@H]2[C@H](NC(=O)[C@H](N)c3ccc(O)cc3)C(=O)N2[C@H]1C(=O)O` [AMOXICILLIN], with 1.89 mL/min/kg; and `CC(=O)Nc1nnc(S(N)(=O)=O)s1` [ACETAZOLAMIDE], with 0.64 mL/min/kg; and `CC(=O)O[C@@]12CO[C@@H]1C[C@H](O)[C@@]1(C)C(=O)[C@H](O)C3=C(C)[C@@H](OC(=O)[C@H](O)[C@@H](NC(=O)OC(C)(C)C)c4ccccc4)C[C@@](O)([C@@H](OC(=O)c4ccccc4)[C@H]21)C3(C)C.O.O.O` [DOCETAXEL], with 0.29 mL/min/kg.
`O=C(O)P(=O)(O)O` [FOSCARNET]: the CL renal is 1.68 mL/min/kg.
Then `Nc1ncn([C@H]2C[C@H](O)[C@@H](CO)O2)c(=O)n1` [DECITABINE], with 1.3 mL/min/kg.
Then `COc1cccc(C2(O)CCCCC2CN(C)C)c1` (centres undefined) [TRAMADOL], with 0.98 mL/min/kg; and `Nc1ccn([C@@H]2O[C@H](CO)[C@@H](O)C2(F)F)c(=O)n1` [GEMCITABINE], with 3.2 mL/min/kg.
In the case of `C[C@@H]([C@@H](O)c1ccc(O)cc1)N1CCC(O)(c2ccccc2)CC1` [TRAXOPRODIL] it was 1.92 mL/min/kg.
On to `CN[C@@H]1CCc2[nH]c3ccc(C(N)=O)cc3c2C1` [FROVATRIPTAN], for which the CL renal stood at 1.04 mL/min/kg.
In the case of `CCC[C@@H]1C[C@@H](C(=O)N[C@@H]([C@H]2O[C@H](SC)[C@H](O)[C@@H](O)[C@H]2O)[C@H](C)Cl)N(C)C1` [CLINDAMYCIN] it was 0.62 mL/min/kg; in that of `COc1ccc2[nH]c([S+]([O-])Cc3ncc(C)c(OC)c3C)nc2c1` (centres undefined) [OMEPRAZOLE], 0.08 mL/min/kg; in that of `CC(C)(C)NC(=O)[C@@H]1CN(Cc2cccnc2)CCN1C[C@@H](O)C[C@@H](Cc1ccccc1)C(=O)N[C@H]1c2ccccc2C[C@H]1O.O`, 1.53 mL/min/kg.
Then `Nc1ccc(S(=O)(=O)c2ccc(N)cc2)cc1` [DAPSONE], with 0.05 mL/min/kg; and `CC(C)c1nc(N(C)S(C)(=O)=O)nc(-c2ccc(F)cc2)c1/C=C/[C@@H](O)C[C@@H](O)CC(=O)O` [ROSUVASTATIN], with 3.3 mL/min/kg; and `NS(=O)(=O)c1cc(C(=O)O)cc(N2CCCC2)c1Oc1ccccc1` [PIRETANIDE], with 1.05 mL/min/kg.
Then `COc1nc(C)nc(Cl)c1N=C1NCCN1` [MOXONIDINE], with 7.5 mL/min/kg; and `Cc1ccc(-c2nc3ccc(C)cn3c2CC(=O)N(C)C)cc1` [ZOLPIDEM], with 0.04 mL/min/kg.
Regarding `COCC(=O)Nc1c(I)c(C(=O)NCC(O)CO)c(I)c(C(=O)N(C)CC(O)CO)c1I` (centres undefined) [IOPROMIDE], the CL renal stood at 1.37 mL/min/kg.
